Read-outs that look alike come from different tables or passages of the source.
Experiments:
[1] = Pharmacokinetics of PEGylated protease inhibitor prodrugs in rats; type: in vivo, male Sprague-Dawley rats; parameters: AUCall / AUC: concentration or dose not given beside the values; conditions: prodrug in plasma; for AUCall / Cmax / AUC: mean ± SD; for concentration at 24 hr: read-out: Cmin(24 hr); for half-life: read-out: t½(z) (converted)
Experimental: Pharmacokinetic analysis of protease inhibitors described herein was conducted. To evaluate the pharmacokinetics of PEGylated protease inhibitor conjugates with releasable lipophilic attachments, test compounds were administered to male Sprague-Dawley rats.
At various times following test article administration, serial blood samples were collected from indwelling jugular vein catheters and transferred to micro-tubes containing 7.5 μL of 20% w/v K2EDTA as an anticoagulant. Following processing of the blood samples to plasma (10 minutes at 10000 rpm, Centrifuge Model: Kubota 3500), plasma concentrations of the test article or corresponding PEGylated molecule released from the test article was measured using LC-MS/MS methods. Pharmacokinetic parameters were estimated using noncompartmental methods.
Table 3 presents a summary of pharmacokinetic parameters of PEGylated protease inhibitor prodrugs, wherein Cmax is the maximum (peak) concentration, AUCall represents the area under the concentration-time curve from zero to time of last concentration value, T½ is half life, and MRTlast is the mean residence time to last observable concentration

[2] = Pharmacokinetics of released PEGylated protease inhibitor following P.O. administration of prodrugs in rats; type: in vivo, male Sprague-Dawley rats; parameters: AUCall Mean: concentration or dose not given beside the values; C24 Mean: unit not given here; conditions: rats (n = 4-5); for C24 Mean: concentration at 24 hours
How it was run: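 Prodrugs given orally to male Sprague-Dawley rats, with serial blood via jugular catheter into K2EDTA. Plasma levels of test article or released PEGylated inhibitor measured by LC-MS/MS. PK parameters from noncompartmental analysis.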

[3] = mPEG3-atazanavir in plasma after PO administration of mPEG3-ATV or of the listed prodrug
[4] = mPEG5-atazanavir in plasma after PO administration of mPEG5-ATV or of the listed prodrug
[5] = mPEG6-atazanavir in plasma after PO administration of mPEG6-ATV or of the listed prodrug
[6] = male, Sprague-Dawley, rat, in vivo
[7] = male, Sprague-Dawley, rat, in vivo, read-out: Cmax
[8] = male, Sprague-Dawley, rat, oral

Row | Structure (SMILES) | MRTlast [1] | t½(z) [1] | Cmin(24 hr) [1] | AUCall [1] | Cmax [1] | AUCall Mean [2, 3] | Cmax Mean [2, 3] | MRT last Mean [2, 3] | Tmax* Median [2, 3] | AUCall Mean [2, 4] | MRT last Mean [2, 4] | Tmax Median [2, 4] | further results
1 | COCCOCCOCCOC(=O)NC(C(=O)NC(Cc1ccccc1)C(CN(Cc1ccc(-c2ccccn2)cc1)NC(=O)C(NC(=O)OC)C(C)(C)C)OC(=O)CCCC(=O)OC1C(O)C(O)OC1C(O)CO)C(C)(C)C (centres unmarked) | 1.86 ± 1.49 h | 3.24 ± 3.26 h | 0.177 ± 0.353 ng/mL | 221 ± 57.1 ng·h/mL | 167 ± 89.6 ng/mL | 84.4 ng·h/mL | 3.62 ng/mL | 22.5 h | 0.250 h | – | – | – | –
2 | CCOC(C)OC(CN(Cc1ccc(-c2ccccn2)cc1)NC(=O)C(NC(=O)OC)C(C)(C)C)C(Cc1ccccc1)NC(=O)C(NC(=O)OCCOCCOCCOC)C(C)(C)C (mixture of isomers) [1-ethoxyethoxy-mPEG3-Atazanivir, ethoxy ethoxy mPEG3-atazanavir] | 1.62 ± 0.350 h | 2.01 ± 0.88 h | 0.370 ± 0.455 ng/mL | 3950 ± 2740 ng·h/mL | 1370 ± 549 ng/mL | 500 ng·h/mL | 154 ng/mL | 2.35 h | 0.500 h | – | – | – | –
3 | CCOC(C)OC(CN(Cc1ccc(-c2ccccn2)cc1)NC(=O)C(NC(=O)OC)C(C)(C)C)C(Cc1ccccc1)NC(=O)C(NC(=O)OCCOCCOCCOCCOCCOC)C(C)(C)C (mixture of isomers) [1-ethoxyethoxy-mPEG5-Atazanivir, ethoxy ethoxy mPEG5-atazanavir] | 1.80 ± 0.060 h | 2.14 ± 1.85 h | 0.208 ± 0.416 ng/mL | 4960 ± 1730 ng·h/mL | 1420 ± 595 ng/mL | – | – | – | – | 329 ng·h/mL | 1.95 h | 1.50 h | Cmax Mean [2, 4]: 109 ng/mL
4 | CCOC(C)OC(CN(Cc1ccc(-c2ccccn2)cc1)NC(=O)C(NC(=O)OC)C(C)(C)C)C(Cc1ccccc1)NC(=O)C(NC(=O)OCCOCCOCCOCCOCCOCCOC)C(C)(C)C (mixture of isomers) [1-ethoxyethoxy-mPEG6-Atazanivir, ethoxy ethoxy mPEG6-atazanavir] | 2.17 ± 0.340 h | 2.45 ± 0.630 h | 0.354 ± 0.410 ng/mL | 2200 ± 2000 ng·h/mL | 630 ± 550 ng/mL | – | – | – | – | – | – | – | AUCall Mean [2, 5]: 137 ng·h/mL; Cmax Mean [2, 5]: 28.8 ng/mL; MRT last Mean [2, 5]: 4.33 h; Tmax Median [2, 5]: 1.50 h
5 | CCOC(CC)OC(CN(Cc1ccc(-c2ccccn2)cc1)NC(=O)C(NC(=O)OC)C(C)(C)C)C(Cc1ccccc1)NC(=O)C(NC(=O)OCCOCCOCCOC)C(C)(C)C (mixture of isomers) [1-ethoxypropoxy-mPEG3-Atazanivir, atazanavir-1-ethoxypropoxy-mPEG3] | 2.29 ± 0.280 h | 1.39 ± 0.210 h | BLQ | 8480 ± 1700 ng·h/mL | 2060 ± 260 ng/mL | 849 ng·h/mL | 153 ng/mL | 3.83 h | 1.00 h | – | – | – | –
6 | COCCOCCOCCOCCOCCOC(=O)NC(C(=O)NC(Cc1ccccc1)C(CN(Cc1ccc(-c2ccccn2)cc1)NC(=O)C(NC(=O)OC)C(C)(C)C)OC(=O)COCCOC(=O)C(Cc1ccccc1)NC(=O)C(N)Cc1ccccc1)C(C)(C)C.Cl (stereo not drawn) [CME Phe-Phe-mPEG5-Atazanavir HCl, mPEG5-atazanavir-ethoxy-CME-Phe-Phe] | 1.26 h | – | BLQ | 1.22 ng·h/mL | 2.36 ng/mL | – | – | – | – | 299 ng·h/mL | 23.9 h | 24.0 h | –
7 | COCCOCCOCCOC(=O)NC(C(=O)NC(Cc1ccccc1)C(CN(Cc1ccc(-c2ccccn2)cc1)NC(=O)C(NC(=O)OC)C(C)(C)C)OC(=O)CNC(=O)C(N)CC(C)C)C(C)(C)C.Cl (stereo not drawn) [Leu-Gly-mPEG3-Atazanavir, Leu-Gly-mPEG3-Atazanavir Hydrochloride] | 0.597 ± 0.376 h | – | – | 0.955 ± 1.02 ng·h/mL | 0.833 ± 0.676 ng/mL | 44.9 ng·h/mL | 2.10 ng/mL | 15.9 h | 4.00 h | – | – | – | –
8 | COCCOCCOCCOCCOCCOC(=O)N[C@H](C(=O)N[C@@H](Cc1ccccc1)[C@H](CN(Cc1ccc(-c2ccccn2)cc1)NC(=O)[C@@H](NC(=O)OC)C(C)(C)C)OC(=O)[C@H](CC(C)C)NC(=O)[C@@H](N)CC(C)C)C(C)(C)C.Cl [Leu-Leu-mPEG5-Atazanavir HCl, Leu-Leu-mPEG5-Atazanavir Hydrochloride] | – | – | – | – | – | – | – | – | – | 118 ng·h/mL | 10.7 h | 0.750 h | MRT last [1, 6]: 3.59 ± 3.27 h; concentration at 24 hr [1, 6]: 0.201 ± 0.401 ng/mL; AUC [1, 6]: 24.9 ± 6.24 ng·h/mL; Cmax [1, 7]: 7.21 ± 0.417 ng/mL; half-life [1, 6]: 3.6 ± 2.59 h; C24 Mean [2, 4]: 2.98; Cmax Mean [2, 4]: 14.1 ng/mL
9 | COCCOCCOCCOC(=O)N[C@H](C(=O)N[C@@H](Cc1ccccc1)[C@H](CN(Cc1ccc(-c2ccccn2)cc1)NC(=O)[C@@H](NC(=O)OC)C(C)(C)C)OC(=O)[C@H](Cc1ccccc1)NC(=O)[C@@H](N)CC(C)C)C(C)(C)C.Cl [Leu-Phe-mPEG3-Atazanavir, Leu-Phe-mPEG3-Atazanavir Hydrochloride] | – | – | – | – | – | 448 ng·h/mL | 84.9 ng/mL | 7.56 h | 2.00 h | – | – | – | MRT last [1, 6]: 3.42 ± 0.916 h; concentration at 24 hr [1, 6]: 0.154 ± 0.307 ng/mL; AUC [1, 6]: 157 ± 30.3 ng·h/mL; Cmax [1, 7]: 41.9 ± 7.92 ng/mL; half-life [1, 6]: 3.2 ± 0.981 h; C24 Mean [2, 3]: 2.35
10 | COCCOCCOCCOCCOCCOC(=O)N[C@H](C(=O)N[C@@H](Cc1ccccc1)[C@H](CN(Cc1ccc(-c2ccccn2)cc1)NC(=O)[C@@H](NC(=O)OC)C(C)(C)C)OC(=O)[C@H](Cc1ccccc1)NC(=O)[C@@H](N)CC(C)C)C(C)(C)C.Cl [Leu-Phe-mPEG5-Atazanavir HCl, Leu-Phe-mPEG5-Atazanavir Hydrochloride] | 7.57 ± 7.76 h | 0.825 h | 1.16 ± 2.31 ng/mL | 53.8 ± 34.1 ng·h/mL | 16.5 ± 14.9 ng/mL | – | – | – | – | 147 ng·h/mL | 9.33 h | 1.50 h | Cmax Mean [2, 4]: 25.6 ng/mL
11 | COCCOCCOCCOCCOCCOC(=O)N[C@H](C(=O)N[C@@H](Cc1ccccc1)[C@H](CN(Cc1ccc(-c2ccccn2)cc1)NC(=O)[C@@H](NC(=O)OC)C(C)(C)C)OC(=O)[C@@H](N)CC(C)C)C(C)(C)C [mPEG5-Atazanavir-L-Leucine] | – | – | – | – | – | – | – | – | – | – | – | – | MRT last [1, 8]: 1.71 ± 0.327 h; AUC [1, 8]: 487 ± 348 ng·h/mL; Cmax ([1]; male, Sprague-Dawley, rat, oral, read-out: Cmax): 191 ± 85.6 ng/mL; half-life [1, 8]: 2.37 ± 2.19 h

From patent US20120108501A1, “Protease Inhibitors” (priority 2009, published 2012)
